Measured values taken from US10975069B2, “Sigma-2 receptor ligand drug conjugates as antitumor compounds, methods of synthesis and uses thereof” (priority 2014, dated 2021).
Several values for one entry are separate records, joined by “and”; a condition that tells them apart may be missing. Equal values may be shown once.

Assays:
caspase 8 = experiment: CASPASE-GLO caspase 8 assay in AsPC-1 cells; type: cell-based, human; conditions: 4 μM, 24 hours, FIG. 12C
Experimental: (§1) In these experiments, caspase-3/7.8 and 9 activities were measured In AsPC-1 cells using the corresponding CASPASE-GLO® Assay according to the manufacturer's instructions (Promega, Madison. Wis.). This assay is based on a caspase-specific substrate, which is cleaved to release aminoluciferin, a substrate of luciferase that results in caspase-specific luminescence signals. Cells were seeded at a density of 2×10^4 in white 96-well, clear bottom plates for 24 hours before treatment with 4 μM of compounds. The contents were then mixed using a plate shaker for 30 seconds, thereafter incubated at room temperature for 90 minutes. Luminescence signal was measured using a multi-mode microplate reader (BioTek). Assay was performed in triplicates, and the caspase activity of DMSO was considered as a base line.
(§2) The present inventors have shown that SV119 induces caspase-3 dependent apoptosis (Kashiwagi, H., el al. Mol Cancer 2007; 6:48). In these experiments, AsPC-1 cells were treated with 4 μM of SW V-49s. SV119, Erastin, and equimolar mixture of SV119 and Erastin for 24 hours. Using CASPASE-GLO® Assays, Caspase-3 level was measured to assess the activity of SW 119 domain of the SW V-49s compound and Caspase-8 and 9 levels were measured to identify which apoptotic pathway was involved.

[1] = test system: PDAC patient-derived xenograft; experiment: PDAC patient-derived mouse xenograft model; type: in vivo; conditions: daily i.p. 375 nmoles for 2 weeks
Experimental: SW V-49s was also tested on a PDAC patient-derived mouse xenograft model, which is more clinically relevant. Surgical PDAC specimens (2×2 mm pieces) were obtained and implanted subcutaneously into the flanks of anesthetized NOD SCID mice. Then, tumors were harvested and implanted in the right flank of Athymic female nude mice (6 weeks old. National Cancer Institute Laboratories). These mice were treated with daily i.p. injections of […] and vehicle for 14 days. Mice were randomized into 2 groups (n=15). Drug treatment was started when the mean tumors diameter was ^˜6 mm. Mice received daily intra peritoneal injections with 375 nmoles in 100 μL/mouse of SW V-49s and vehicle for 2 weeks. Tumors were measured every other day. Mice were euthanized when tumors reached a diameter of 2 cm or ulcerated.

caspase 9 = experiment: CASPASE-GLO caspase 9 assay in AsPC-1 cells; type: cell-based, human; conditions: 4 μM, 24 hours, DMSO baseline, FIG. 12B
Experimental: as §1, §2

[2] = Toxicity study (necropsy, CBC, clinical chemistry) in tumor bearing mice; type: in vivo, C57BL/6 mice
Experimental: Six adult female mice were submitted to necropsy. The strain designation of the mice was C57BL/6. […]
Animal studies were performed according to the animal studies protocol approved by Washington University Institutional Animal Care Facility. In vivo studies with mice were performed to compare the effects of SW V-49s, SV119. Erastin, a combination of SV119 with Erastin, and vehicle. […] C57BL/6 mice (6 weeks old. National Cancer Institute Laboratories) were injected in the right flank with 200 μL single cell suspension of KCKO cells in RPMI medium (25×10^4/10^5 cells per mouse). Mice were randomized into four groups (n=15). Treatment was started when the mean tumor diameter was ^˜5 mm. […] Erastin, equimolar mix of SV119 and Erastin. Tumors were measured every other day with a digital caliper. Several mice from different treatment groups were sent to the Division of Comparative Medicine in our institution for pathologic evaluation. Blood was collected for complete blood count (CBC) and biochemical analysis (AST, ALT, BUN, total bilirubin, and Cr). Organs were examined grossly and histologically.

[3] = Table 2, individual mouse, listed as test drug
[4] = Table 3 differential, individual mouse
[5] = Table 3 differential, individual mouse, listed as test drug
[6] = Table 4, individual mouse, listed as test drug
[7] = Table 6, individual mouse (Drug 1-3), treated 10 days
[8] = Table 7, individual mouse (Drug 1-3), treated 10 days
[9] = daily i.p. 375 nmoles for 10 days

## CCOc1ccccc1-n1c(CN2CCN(C(=O)COc3ccc(CNCCCCCCN4C5CCCC4CC(OC(=O)Nc4cc(C)ccc4OC)C5)cc3)CC2)nc2ccccc2c1=O.O=C(O)C(=O)O (stereo not shown) [SW V-49s]
Caspase 8
  increase in caspase 8: no significant increase
[1]
  tolerability: tolerated the treatment well without obvious off-target effects
[1]; FIG. 14C
  growth rate of established tumors: markedly slowed the growth rate of the established tumors
[1]; vehicle 33 days, FIG. 14D
  median survival: 58 days
Caspase 9
  caspase-9 fold above baseline: 3.2 fold
[2]; Table 2, individual mouse, daily i.p. over 2 weeks, listed as test drug
  WBC: 5.68 10^3/μL and 3.34 10^3/μL and 4.16 10^3/μL
[2]; Table 2, individual mouse, * mild platelet clumping, listed as test drug
  Platelets: 749* 10^3/μL and 885 10^3/μL and 611 10^3/μL
[2]; [3]
  HGB: 10.7 g/dL and 10.5 g/dL and 9.8 g/dL
  MCH: 12.3 pg and 12.5 pg and 12.8 pg
  MCHC: 27.2% and 24.8% and 26.0%
  MCV: 45.3 u and 50.5 u and 49.2 u
  PCV: 39.3% and 42.4% and 37.7%
  RBC: 8.67 10^6/μL and 8.40 10^6/μL and 7.66 10^6/μL
[2]; [4]
  Bands: 0%
  Basophils: 0%
  Eosinophils: 0%
  Nrbe: 0%
[2]; [5]
  Lymphocytes: 96% and 78% and 87%
  Monocytes: 2% and 4% and 0%
  Neutrophils: 2% and 18% and 13%
[2]; [6]
  ALT: 138 u/L and 64 u/L and 63 u/L
  AST: 167 u/L and 147 u/L and 55 u/L
  BUN: 19 mg/dL and 22 mg/dL and 17 mg/dL
  Creatinine: 0.22 mg/dL and 0.21 mg/dL and 0.24 mg/dL
  Glucose: 178 mg/dL and 310 mg/dL and 180 mg/dL
  Total Protein: 5.1 g/dL (2×) and 5.7 g/dL
[2]; [7]
  HGB: 9.8 g/dL and 10.7 g/dL and 10.5 g/dL
  MCH: 12.8 pg and 12.3 pg and 12.5 pg
  MCHC: 26.0% and 27.2% and 24.8%
  MCV: 49.2 u and 45.3 u and 50.5 u
  PCV: 37.7% and 39.3% and 42.4%
  Platelets: 611 10^3/μL and 749 10^3/μL and 885 10^3/μL
  RBC: 7.66 10^6/μL and 8.67 10^6/μL and 8.40 10^6/μL
  WBC: 4.16 10^3/μL and 5.68 10^3/μL and 3.34 10^3/μL
[2]; [8]
  ALT: 138 μ/L and 64 μ/L and 63 μ/L
  AST: 167 μ/L and 147 μ/L and 55 μ/L
  BUN: 19 mg/dL and 22 mg/dL and 17 mg/dL
  Creatinine: 0.22 mg/dL and 0.21 mg/dL and 0.24 mg/dL
  Glucose: 178 mg/dL and 310 mg/dL and 180 mg/dL
  Total Protein: 5.1 g/dL (2×) and 5.7 g/dL
[2]; [9]
  mice behavior and drug-related deaths: no gross abnormalities in the mice behavior (grooming) or any drug-related deaths were recorded
  organs analyses (brain, heart, lungs, alimentary tract, kidneys, liver and pancreas), adverse drug effects: did not reveal any obvious signs of adverse drug effects, except a mild peritonitis
  serum labs (CBC, AST, ALT, BUN, total bilirubin, and Cr): unchanged
[2]; daily i.p. over 2 weeks
  histopathologic finding in drug-treated versus control animals: minimal to moderate chronic peritonitis
[2]; pre-necropsy, individual mouse, daily i.p. over 2 weeks, listed as test drug
  Body weight: 21 grams and 19 grams and 22 grams
[2]; treated for 10 days, Table 6
  differences in cell counts (CBC) versus vehicle: not statistically significant
